Source: ChEMBL document CHEMBL1201862, “PubChem BioAssay data set” (2004)
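These data come from cells grown in 96-well plates and exposed to compound for 48 hours at five concentrations. The concentration for 50% growth inhibition is given as GI50.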 Active and inactive are the calls of the source. Rule as the data show it: active = GI50 up to about 1.1 µM and inactive = higher.

Experiments:
Test in all cases: NCI-60 cell line screen, 48 h
NCI-H23 = tested on: NCI-H23
CAKI-1 = tested on: CAKI-1
SNB-19 = tested on: SNB-19
Malme-3M = tested on: Malme-3M
IGROV-1 = tested on: IGROV-1
TK-10 = tested on: TK-10
SK-MEL-2 = tested on: SK-MEL-2
SNB-75 = tested on: SNB-75
U-251 = tested on: U-251
A498 = tested on: A498
MCF7 = tested on: MCF7
MDA-MB-435 = tested on: MDA-MB-435
A549 = tested on: A549
Hs-578T = tested on: Hs-578T
SN12C = tested on: SN12C
HCT-15 = tested on: HCT-15
NCI-H460 = tested on: NCI-H460
UO-31 = tested on: UO-31
MDA-N = tested on: MDA-N
NCI/ADR-RES = tested on: NCI/ADR-RES
OVCAR-4 = tested on: OVCAR-4
EKVX = tested on: EKVX
M14 = tested on: M14
MOLT-4 = tested on: MOLT-4
OVCAR-3 = tested on: OVCAR-3
LOX IMVI = tested on: LOX IMVI
T47D = tested on: T47D
HT-29 = tested on: HT-29
MDA-MB-231 = tested on: MDA-MB-231
COLO 205 = tested on: COLO 205
SK-MEL-5 = tested on: SK-MEL-5
HL-60 = tested on: HL-60
NCI-H522 = tested on: NCI-H522
OVCAR-8 = tested on: OVCAR-8
SK-OV-3 = tested on: SK-OV-3
RXF 393 = tested on: RXF 393
UACC-257 = tested on: UACC-257
PC-3 = tested on: PC-3
HOP-62 = tested on: HOP-62
SK-MEL-28 = tested on: SK-MEL-28
HOP-92 = tested on: HOP-92
CCRF-CEM = tested on: CCRF-CEM
BT-549 = tested on: BT-549
SW-620 = tested on: SW-620
OVCAR-5 = tested on: OVCAR-5
K562 = tested on: K562
786-0 = tested on: 786-0
RPMI-8226 = tested on: RPMI-8226
KM12 = tested on: KM12
HCC 2998 = tested on: HCC 2998
DU-145 = tested on: DU-145
SF-268 = tested on: SF-268
UACC-62 = tested on: UACC-62
ACHN = tested on: ACHN
HCT-116 = tested on: HCT-116
SF-295 = tested on: SF-295
NCI-H226 = tested on: NCI-H226

Q: Which results are given for `CN(C)Cc1cc(O)c(O)c(CN(C)C)c1`?
A: GI50 (NCI-H23): 37 µM (inactive); GI50 (CAKI-1): 34.4 µM (inactive); GI50 (SNB-19): 50.9 µM (inactive); GI50 (Malme-3M): 31.3 µM (inactive); GI50 (IGROV-1): 46.3 µM (inactive); GI50 (TK-10): 37.5 µM (inactive); GI50 (SK-MEL-2): 37.2 µM (inactive); GI50 (SNB-75): 56.6 µM (inactive); GI50 (U-251): 36.6 µM (inactive); GI50 (A498): > 100 µM (inactive); GI50 (MCF7): 39.6 µM (inactive); GI50 (MDA-MB-435): > 100 µM (inactive); GI50 (A549): 46.6 µM (inactive); GI50 (Hs-578T): > 100 µM (inactive); GI50 (SN12C): 36.9 µM (inactive); GI50 (HCT-15): 24.2 µM; GI50 (NCI-H460): 21.4 µM (inactive); GI50 (UO-31): 25.9 µM (inactive); GI50 (MDA-N): 57.8 µM (inactive); GI50 (NCI/ADR-RES): 19.3 µM (inactive); GI50 (OVCAR-4): 42.5 µM (inactive); GI50 (EKVX): 16.4 µM (inactive); GI50 (M14): 22.7 µM (inactive); GI50 (MOLT-4): 27.9 µM (inactive); GI50 (OVCAR-3): 36.7 µM (inactive); GI50 (LOX IMVI): 36 µM (inactive); GI50 (T47D): 49.9 µM (inactive); GI50 (HT-29): 40.2 µM (inactive); GI50 (MDA-MB-231): > 100 µM (inactive); GI50 (COLO 205): 34.7 µM (inactive); GI50 (SK-MEL-5): 29.4 µM (inactive); GI50 (HL-60): 24.8 µM (inactive); GI50 (NCI-H522): 30.3 µM (inactive); GI50 (OVCAR-8): 35.2 µM (inactive); GI50 (SK-OV-3): 54.1 µM (inactive); GI50 (RXF 393): 50.4 µM (inactive); GI50 (UACC-257): 17.3 µM (inactive); GI50 (PC-3): 48.8 µM (inactive); GI50 (HOP-62): 37.2 µM (inactive); GI50 (SK-MEL-28): 51.9 µM (inactive); GI50 (HOP-92): > 100 µM (inactive); GI50 (CCRF-CEM): 20.2 µM (inactive); GI50 (BT-549): 54 µM (inactive); GI50 (SW-620): 64.3 µM (inactive); GI50 (OVCAR-5): 32.4 µM (inactive); GI50 (K562): 33 µM (inactive); GI50 (786-0): 31.4 µM (inactive); GI50 (RPMI-8226): 35.7 µM (inactive); GI50 (KM12): 94.2 µM (inactive); GI50 (HCC 2998): 29 µM (inactive); GI50 (DU-145): 35.9 µM (inactive); GI50 (SF-268): 35.4 µM (inactive); GI50 (UACC-62): 29.5 µM (inactive); GI50 (ACHN): 34.5 µM (inactive); GI50 (HCT-116): 41.3 µM (inactive); GI50 (SF-295): 47 µM (inactive); GI50 (NCI-H226): 43.3 µM (inactive)
